Experiment: solvent given as SMILES

CCCCCCCC
solvation free energy, 298 K (in Brc1ccccc1): -5.05 kcal/mol
solvation free energy, 298 K (in C1CCCCC1): -5.54 kcal/mol
solvation free energy, 298 K (in C1CCOC1): -5.32 kcal/mol
solvation free energy, 298 K (in C1COCCO1): -4.49 kcal/mol
solvation free energy, 298 K (in C=CCCCC): -5.39 kcal/mol
solvation free energy, 298 K (in C=CCCCCCC): -5.28 kcal/mol
solvation free energy, 298 K (in C=CCCCCCCCC): -5.23 kcal/mol
solvation free energy, 298 K (in CC1COC(=O)O1): -3.01 kcal/mol
solvation free energy, 298 K (in CC#N): -3.63 kcal/mol
solvation free energy, 298 K (in CC(=O)N(C)C): -3.96 kcal/mol
solvation free energy, 298 K (in CC(=O)O): -3.96 kcal/mol
solvation free energy, 298 K (in CC(=O)c1ccccc1): -4.29 kcal/mol
solvation free energy, 298 K (in CC(C)(C)O): -4.62 kcal/mol
solvation free energy, 298 K (in CC(C)=O): -4.41 kcal/mol
solvation free energy, 298 K (in CC(C)CC(C)(C)C): -5.32 kcal/mol
solvation free energy, 298 K (in CC(C)CCCC(C)CCCC(C)CCCCC(C)CCCC(C)CCCC(C)C): -4.83 kcal/mol
solvation free energy, 298 K (in CC(C)CCO): -4.61 kcal/mol
solvation free energy, 298 K (in CC(C)O): -4.4 kcal/mol
solvation free energy, 298 K (in CC(C)OC(C)C): -5.29 kcal/mol
solvation free energy, 298 K (in CC(Cl)Cl): -4.66 kcal/mol
solvation free energy, 298 K (in CC(O)CO): -2.84 kcal/mol
solvation free energy, 298 K (in CCBr): -5.39 kcal/mol
solvation free energy, 298 K (in CCC(C)(C)OC): -5.28 kcal/mol
solvation free energy, 298 K (in CCC(C)=O): -4.69 kcal/mol
solvation free energy, 298 K (in CCCC#N): -4.33 kcal/mol
solvation free energy, 298 K (in CCCC(=O)OCC): -4.94 kcal/mol
solvation free energy, 298 K (in CCCC(C)=O): -4.81 kcal/mol
solvation free energy, 298 K (in CCCCC): -5.43 kcal/mol
solvation free energy, 298 K (in CCCCC(CC)COC(=O)CCCCC(=O)OCC(CC)CCCC): -4.69 kcal/mol
solvation free energy, 298 K (in CCCCC(CC)COC(=O)c1ccccc1C(=O)OCC(CC)CCCC): -4.43 kcal/mol
solvation free energy, 298 K (in CCCCCC): -5.42 kcal/mol
solvation free energy, 298 K (in CCCCCC(C)=O): -4.83 kcal/mol
solvation free energy, 298 K (in CCCCCCC): -5.37 kcal/mol
solvation free energy, 298 K (in CCCCCCCCC): -5.23 kcal/mol
solvation free energy, 298 K (in CCCCCCCCC=CCCCCCCCC(=O)OCC(COC(=O)CCCCCCCC=CCCCCCCCC)OC(=O)CCCCCCCC=CCCCCCCCC): -4.75 kcal/mol
solvation free energy, 298 K (in CCCCCCCCCC): -5.2 kcal/mol
solvation free energy, 298 K (in CCCCCCCCCCCC): -5.11 kcal/mol
solvation free energy, 298 K (in CCCCCCCCCCCCCCCC): -5.01 kcal/mol
solvation free energy, 298 K (in CCCCCCCCCCCCO): -4.65 kcal/mol
solvation free energy, 298 K (in CCCCCCCCCCO): -4.53 kcal/mol
solvation free energy, 298 K (in CCCCCCCCO): -4.62 kcal/mol
solvation free energy, 298 K (in CCCCCCOC(C)=O): -4.92 kcal/mol
solvation free energy, 298 K (in CCCCCO): -4.62 kcal/mol
solvation free energy, 298 K (in CCCCO): -4.49 kcal/mol
solvation free energy, 298 K (in CCCCOC(=O)c1ccccc1C(=O)OCCCC): -4.5 kcal/mol
solvation free energy, 298 K (in CCCCOC(C)=O): -4.85 kcal/mol
solvation free energy, 298 K (in CCCCOCCCC): -5.25 kcal/mol
solvation free energy, 298 K (in CCCO): -4.41 kcal/mol
solvation free energy, 298 K (in CCN1CCCC1=O): -4.09 kcal/mol
solvation free energy, 298 K (in CCN(CC)C(C)=O): -4.35 kcal/mol
solvation free energy, 298 K (in CCN(CC)CC): -5.5 kcal/mol
solvation free energy, 298 K (in CCNC(C)=O): -4.09 kcal/mol
solvation free energy, 298 K (in CCNC=O): -3.79 kcal/mol
solvation free energy, 298 K (in CCO): -4.3 kcal/mol
solvation free energy, 298 K (in CCOC(=O)c1ccccc1C(=O)OCC): -3.95 kcal/mol
solvation free energy, 298 K (in CCOC(C)=O): -4.71 kcal/mol
solvation free energy, 298 K (in CCOCC): -5.41 kcal/mol
solvation free energy, 298 K (in CCOCCOCCOCC): -4.65 kcal/mol
solvation free energy, 298 K (in CCOc1ccccc1): -4.77 kcal/mol
solvation free energy, 298 K (in CN1CCCC1=O): -3.77 kcal/mol
solvation free energy, 298 K (in CN1CCCCC1=O): -4.02 kcal/mol
solvation free energy, 298 K (in CN(C)C=O): -3.75 kcal/mol
solvation free energy, 298 K (in CN(C)P(=O)(N(C)C)N(C)C): -4.26 kcal/mol
solvation free energy, 298 K (in CNC=O): -3.34 kcal/mol
solvation free energy, 298 K (in CO): -3.86 kcal/mol
solvation free energy, 298 K (in COC(C)=O): -4.49 kcal/mol
solvation free energy, 298 K (in COCCO): -3.76 kcal/mol
solvation free energy, 298 K (in COCCOCCOCCOCCOC): -4.01 kcal/mol
solvation free energy, 298 K (in COc1ccccc1): -4.7 kcal/mol
solvation free energy, 298 K (in CS(C)=O): -2.79 kcal/mol
solvation free energy, 298 K (in Cc1ccc(C)cc1): -5.28 kcal/mol
solvation free energy, 298 K (in Cc1cccc(C)n1): -4.92 kcal/mol
solvation free energy, 298 K (in Cc1cccc(O)c1): -4.08 kcal/mol
solvation free energy, 298 K (in Cc1ccccc1): -5.29 kcal/mol
solvation free energy, 298 K (in Cc1ccccn1): -4.78 kcal/mol
solvation free energy, 298 K (in ClC(Cl)(Cl)Cl): -5.45 kcal/mol
solvation free energy, 298 K (in ClC(Cl)Cl): -5.32 kcal/mol
solvation free energy, 298 K (in ClCCCl): -4.71 kcal/mol
solvation free energy, 298 K (in ClCCl): -5.08 kcal/mol
solvation free energy, 298 K (in Clc1ccccc1): -5.21 kcal/mol
solvation free energy, 298 K (in FC(F)(F)C(F)(F)C(F)(F)C(F)(F)C(F)(F)C(F)(F)C(F)(F)C(F)(F)F): -3.45 kcal/mol
solvation free energy, 298 K (in FC(F)(F)C(F)(F)C(F)(F)C(F)(F)C(F)(F)C(F)(F)F): -3.52 kcal/mol
solvation free energy, 298 K (in Fc1c(F)c(F)c(F)c(F)c1F): -4.83 kcal/mol
solvation free energy, 298 K (in Fc1ccccc1): -5.11 kcal/mol
solvation free energy, 298 K (in ICI): -3.3 kcal/mol
solvation free energy, 298 K (in Ic1ccccc1): -4.74 kcal/mol
solvation free energy, 298 K (in N#CCCCCC#N): -2.96 kcal/mol
solvation free energy, 298 K (in NC=O): -1.27 kcal/mol
solvation free energy, 298 K (in NCCO): -1.74 kcal/mol
solvation free energy, 298 K (in Nc1ccccc1): -3.52 kcal/mol
solvation free energy, 298 K (in O=C1CCCCC1): -4.63 kcal/mol
solvation free energy, 298 K (in O=C1CCCO1): -3.22 kcal/mol
solvation free energy, 298 K (in O=CN1CCOCC1): -3.04 kcal/mol
solvation free energy, 298 K (in OCCCCCO): -3.06 kcal/mol
solvation free energy, 298 K (in OCCCCO): -2.87 kcal/mol
solvation free energy, 298 K (in OCCCO): -2.59 kcal/mol
solvation free energy, 298 K (in OCCOCCO): -2.35 kcal/mol
solvation free energy, 298 K (in OCCOCCOCCOCCO): -2.71 kcal/mol
solvation free energy, 298 K (in OCc1ccccc1): -3.81 kcal/mol
solvation free energy, 298 K (in S=C=S): -5.53 kcal/mol
solvation free energy, 298 K (in c1ccc2ncccc2c1): -4.22 kcal/mol
solvation free energy, 298 K (in c1ccc(COCc2ccccc2)cc1): -4.28 kcal/mol
solvation free energy, 298 K (in c1ccccc1): -5.25 kcal/mol
solvation free energy, 298 K (in c1ccncc1): -4.49 kcal/mol

CCOP(=S)(OCC)Oc1cc(C)nc(C(C)C)n1
solvation free energy, 298 K (in O): -6.48 kcal/mol

C1CCCCCCC1
solvation free energy, 298 K (in CCCCCCCCCCCCCCCC): -5.55 kcal/mol
solvation free energy, 298 K (in CN1CCCC1=O): -4.77 kcal/mol
solvation free energy, 298 K (in CN(C)C=O): -4.39 kcal/mol
solvation free energy, 298 K (in COCCO): -4.52 kcal/mol
solvation free energy, 298 K (in CS(C)=O): -3.85 kcal/mol
solvation free energy, 298 K (in N#CCCCCC#N): -4.01 kcal/mol
solvation free energy, 298 K (in NCCO): -3 kcal/mol
solvation free energy, 298 K (in O): 0.91 kcal/mol

Source: the CombiSolv-Exp solvation set (Vermeire and Green 2021)
